Holding throughout (experiment): microbe, parasite or virus in culture
Set-up in all cases: CLSI broth microdilution MIC in LB, lowest concentration with no visible growth
On the technique in general: Broth dilution looks for growth in wells or tubes with falling amounts of substance.

The subject of assay [1] is T1, E. coli ZJ487 (NDM-1).
T1 construct: ZJ487 (NDM-1)
Particulars: Escherichia coli; antibiotic alone; read-out: MIC (μg/mL) Alone.
Experimental: (§1) MIC values were determined according to the broth microdilution guidelines of the Clinical and Laboratory Standards Institute (CLSI). After the tested strains were diluted with LB to a final concentration of 5×10^5 CFUs/mL, various concentrations of meropenem (0-256 μg/mL) and increasing concentrations of inhibitors (0-64 μg/mL) were added to the sterile 96-well plate, and further incubated for 18-24 h at 37 °C. The lowest concentration with no visible growth was considered as the MIC value. The synergistic effect of antibiotics and inhibitors was assessed by determining the fractional inhibitory concentration (FIC) index values according to the formula: FICI = (MIC of inhibitors in combination/MIC of inhibitors) + (MIC of antibiotics in combination/MIC of antibiotics).

Assay [2] relates to T2, E. coli 2Z69 (NDM-5).
T2 construct: 2Z69 (NDM-5)
The settings on record: Escherichia coli; antibiotic alone; read-out: MIC (μg/mL) Alone.
Experimental: as §1

The test system of assay [3] is T3, E. coli D3 (NDM-1).
T3 construct: D3 (NDM-1)
The settings on record: Escherichia coli; antibiotic alone; read-out: MIC (μg/mL) Alone.
Experimental: as §1

For assay [4], the system named is T4, K. pneumoniae QD-KP2 (NDM-1).
T4 construct: QD-KP2 (NDM-1)
Particulars: Klebsiella pneumoniae; antibiotic alone; read-out: MIC (μg/mL) Alone.
Experimental: (§2) MIC values were determined according to the broth microdilution guidelines of the Clinical and Laboratory Standards Institute (CLSI). After the tested strains were diluted with LB to a final concentration of 5×10^5 CFUs/mL, various concentrations of meropenem (0-256 μg/mL) and increasing concentrations of inhibitors (0-64 μg/mL) were added to the sterile 96-well plate, and further incubated for 18-24 h at 37 °C. The lowest concentration with no visible growth was considered as the MIC value.

The test system of assay [5] is T5, E. coli ATCC 25922.
T5 construct: ATCC 25922
Particulars: Escherichia coli, ATCC25922; antibiotic alone; read-out: MIC (μg/mL) Alone.
Experimental: as §2

Assay [6] has as its system T6, E. coli 2Z49 (NDM-5).
T6 construct: 2Z49 (NDM-5)
The settings on record: Escherichia coli; antibiotic alone; read-out: MIC (μg/mL) Alone.
Experimental: as §2

In assay [7] the test system is T7, E. coli ZC-YN7 (NDM-9).
T7 construct: ZC-YN7 (NDM-9)
Particulars: Escherichia coli; antibiotic alone; read-out: MIC (μg/mL) Alone.
Experimental: as §1

The test system of assay [8] is T8, K. pneumoniae QD-KP3 (NDM-1).
T8 construct: QD-KP3 (NDM-1)
Particulars: Klebsiella pneumoniae; antibiotic alone; read-out: MIC (μg/mL) Alone.
Experimental: as §1

Assay [9] concerns T9, E. coli E4 (NDM-5).
T9 construct: E4 (NDM-5)
Particulars: Escherichia coli; antibiotic alone; read-out: MIC (μg/mL) Alone.
Experimental: as §1

For assay [10], the system named is T10, K. pneumoniae QD-KP1 (NDM-1).
T10 construct: QD-KP1 (NDM-1)
Particulars: Klebsiella pneumoniae; antibiotic alone; read-out: MIC (μg/mL) Alone.
Experimental: as §2

Assay [11] concerns T11, E. cloacae 20712 (VIM-1).
T11 construct: 20712 (VIM-1)
Particulars: Enterobacter cloacae; antibiotic alone; read-out: MIC (μg/mL) Alone.
Experimental: as §1

In assay [12] the test system is T12, E. coli BL21 (pET28a-SP-NDM-1).
T12 construct: BL21 (pET28a-SP-NDM-1)
Particulars: Escherichia coli, read-out: MIC (μg/mL) Alone.
Experimental: as §1

For assay [13], the system named is T13, E. coli ZC-YN3 (NDM-1).
T13 construct: ZC-YN3 (NDM-1)
Particulars: Escherichia coli; antibiotic alone; read-out: MIC (μg/mL) Alone.
Experimental: as §1

The subject of assay [14] is T14, E. cloacae 20710 (VIM-1).
T14 construct: 20710 (VIM-1)
The settings on record: Enterobacter cloacae; antibiotic alone; read-out: MIC (μg/mL) Alone.
Experimental: as §1

Assay [15] deals with T15, E. coli E2 (NDM-9).
T15 construct: E2 (NDM-9)
Particulars: Escherichia coli; antibiotic alone; read-out: MIC (μg/mL) Alone.
Experimental: as §1

In assay [16] the test system is T16, E. coli E1 (NDM-1).
T16 construct: E1 (NDM-1)
Particulars: Escherichia coli; antibiotic alone; read-out: MIC (μg/mL) Alone.
Experimental: as §2

Each structure is given as a SMILES string. Converted amounts (≈) assume the structure as drawn.

Consider `CC1(C)S[C@@H]2[C@H](NC(=O)[C@H](N)c3ccc(O)cc3)C(=O)N2[C@H]1C(=O)O` [Amoxicillin], for which the MIC in [1] was found to be 512 µg/mL (≈ 1400 µM).

`O=C(N[C@H](CO)[C@H](O)c1ccc([N+](=O)[O-])cc1)C(Cl)Cl` [Chloramphenicol]: the MIC in assay [1] was found to be 8 µg/mL (≈ 24.8 µM).

`CNC(C)[C@@H]1CC[C@@H](N)[C@@H](O[C@H]2[C@H](O)[C@@H](O[C@H]3OC[C@](C)(O)[C@H](NC)[C@H]3O)[C@H](N)C[C@@H]2N)O1` (stereo partly drawn) [Gentamicin]: the MIC in [1] turned out to be 341 ± 121 µg/mL (≈ 715 µM).

As to `C[C@@H](O)[C@H]1C(=O)N2C(C(=O)O)=C(SCCNC=N)C[C@H]12` [Imipenem], the MIC in assay [1] was 13.3 ± 3.77 µg/mL (≈ 44.5 µM).

Regarding `C[C@@H](O)[C@H]1C(=O)N2C(C(=O)O)=C(S[C@@H]3CN[C@H](C(=O)N(C)C)C3)[C@H](C)[C@H]12` [Meropenem], the MIC came out at 32 µg/mL (≈ 83.4 µM) in assay [2]; 32 µg/mL (≈ 83.4 µM) in assay [1]; 13.3 ± 3.77 µg/mL (≈ 34.8 µM) in [3]; 107 ± 30.2 µg/mL (≈ 278 µM) in assay [4]; 0.03 µg/mL (≈ 0.0782 µM) in assay [5]; 32 µg/mL (≈ 83.4 µM) in assay [6]. Also, the MIC in [7] was 13.3 ± 3.77 µg/mL (≈ 34.8 µM); in assay [8], 128 µg/mL (≈ 334 µM); in assay [9], 53.3 ± 15.1 µg/mL (≈ 139 µM); in assay [10], 64 µg/mL (≈ 167 µM); in [11] it was 32 µg/mL (≈ 83.4 µM); in assay [12], 128 µg/mL (≈ 334 µM). For the same compound, the MIC in [13] was found to be 21.3 ± 7.54 µg/mL (≈ 55.6 µM); in assay [14], 32 µg/mL (≈ 83.4 µM); in [15], 53.3 ± 15.1 µg/mL (≈ 139 µM); in assay [16], 13.3 ± 3.77 µg/mL (≈ 34.8 µM).

On to `CN(C)[C@@H]1C(O)=C(C(N)=O)C(=O)[C@@]2(O)C(O)=C3C(=O)c4c(O)cccc4[C@@](C)(O)[C@H]3C[C@@H]12` [Tetracycline], for which, in [1], the MIC came out at 213 ± 60.3 µg/mL (≈ 480 µM).

The values above are taken from publication doi:10.1101/2022.01.16.476523v1, “Novel MBLs inhibitors screened from FDA-approved drug library restore the susceptibility of carbapenems to NDM-1-harbouring bacteria” (biorxiv, 2022).
